pIC50: −log10 of the molar value.
Columns and labels:
[1] = biological target: T1, MMP-1FL (full length interstitial collagenase) (Homo sapiens, UniProt P03956); experiment: Thiopeptolide substrate hydrolysis assay, MMP-1FL; assay type: biochemical; details: HEPES pH 7.0, 22° C.
T1 sequence (P03956 100-469): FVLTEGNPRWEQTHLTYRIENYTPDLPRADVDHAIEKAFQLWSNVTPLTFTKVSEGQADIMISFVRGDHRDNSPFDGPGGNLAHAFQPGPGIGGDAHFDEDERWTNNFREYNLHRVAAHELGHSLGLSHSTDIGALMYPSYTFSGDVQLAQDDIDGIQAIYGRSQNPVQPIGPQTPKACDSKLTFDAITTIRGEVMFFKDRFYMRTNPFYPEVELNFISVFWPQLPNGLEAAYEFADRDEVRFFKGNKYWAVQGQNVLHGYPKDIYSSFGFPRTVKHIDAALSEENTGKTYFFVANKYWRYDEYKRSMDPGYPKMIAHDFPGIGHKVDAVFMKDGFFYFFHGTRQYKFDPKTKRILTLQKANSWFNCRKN
Text: Several representative compounds have been evaluated for their ability to inhibit various matrix metalloproteinase enzymes.

[2] = biological target: MMP-3CD (catalytic domain of stromelysin-1) (Homo sapiens, UniProt P08254); experiment: Thiopeptolide substrate hydrolysis assay, MMP-3CD; assay type: biochemical; details: 50 mM MES pH 6.0
Procedure: It should be appreciated that the assay buffer used with MMP-3CD was 50 mM N-morpholinoethanesulfonate (“MES”) at pH 6.0 rather than the HEPES buffer at pH 7.0 described above.

[3] = biological target: MMP-13CD (catalytic domain of collagenase-3) (Homo sapiens, UniProt P45452); experiment: Thiopeptolide substrate hydrolysis assay, MMP-13CD; assay type: biochemical; details: HEPES pH 7.0, 22° C.
Procedure: The assays measure the amount by which a test compound reduces the hydrolysis of a thiopeptolide substrate caused by a matrix metalloproteinase enzyme.
Thiopeptolide substrates show virtually no decomposition or hydrolysis in the absence of a matrix metalloproteinase enzyme. A typical thiopeptolide substrate commonly utilized for assays is Ac-Pro-Leu-Gly-thioester-Leu-Leu-Gly-OEt. A 100-μL assay mixture will contain 50 mM of N-2-hydroxyethylpiperazine-N′-2-ethanesulfonic acid (“HEPES,” pH 7.0), 10 mM CaCl2, 100 μM thiopeptolide substrate, and 1 mM 5,5′-dithio-bis-(2-nitro-benzoic acid) (DTNB). […] Assays are carried out with and without matrix metalloproteinase inhibitor compounds, and the amount of hydrolysis is compared for a determination of inhibitory activity of the test compounds.

Chain of MMP-3CD (catalytic domain of stromelysin-1) (P08254 100-272 limits assumed): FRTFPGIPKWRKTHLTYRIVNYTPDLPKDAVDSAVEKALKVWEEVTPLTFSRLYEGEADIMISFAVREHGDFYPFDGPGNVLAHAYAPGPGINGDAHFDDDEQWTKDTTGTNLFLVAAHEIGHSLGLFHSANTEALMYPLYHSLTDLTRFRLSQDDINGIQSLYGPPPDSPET

Compound	pIC50 [1]	pIC50 [2]	pIC50 [3]	melting point [°C]
4-Methoxy-N,N′-bis-(4-methoxy-benzyl)-isophthalamide [Example 24]	< 4.00	< 4.00	6.55	
O=C(OCc1ccc2nsnc2c1)c1cccc(C(=O)OCc2ccc3nsnc3c2)c1 [Example 3, Isophthalic acid di-(2,1,3-benzothiadiazol-5-yl)methyl ester]	< 4.00	< 4.52		
COc1ccc(C(=O)OCc2ccncc2)cc1C(=O)OCc1ccncc1 [Example 5, 4-Methoxy-isophthalic acid dipyridin-4-ylmethyl ester]	< 4.00	< 4.00	6.59	
O=C(NCc1ccc(Cl)cc1)c1cccc(C(=O)NCc2ccc(Cl)cc2)c1 [Example 10, N,N′-Bis-(4-chloro-benzyl)-isophthalamide]				136 to 138
O=C(OCc1cccc(F)c1)c1cccc(C(=O)OCc2cccc(F)c2)c1 [Example 11, Isophthalic acid bis-(3-fluoro-benzyl) ester]				81 to 82
COc1ccc(COC(=O)c2cccc(C(=O)OCc3ccc(OC)cc3)c2)cc1 [Example 12, Isophthalic acid bis-(4-methoxy-benzyl) ester]				90 to 92
COc1cccc(COC(=O)c2cccc(C(=O)OCc3cccc(OC)c3)c2)c1 [Example 13, Isophthalic acid bis-(3-methoxy-benzyl) ester]				68 to 70
O=C(OCc1ccc2c(c1)OCO2)c1cccc(C(=O)OCc2ccc3c(c2)OCO3)c1 [Example 14, Isophthalic acid bis-(1,3-benzodioxol-5-ylmethyl) ester]				109 to 110
COc1ccc(CNC(=O)c2cccc(C(=O)NCc3ccc(OC)cc3)c2)cc1 [Example 16, N,N′-Bis-(4-methoxy-benzyl)-isophthalamide]				175 to 176
O=C(NCc1cccc(F)c1)c1cccc(C(=O)NCc2cccc(F)c2)c1 [Example 17, N,N′-Bis-(3-fluoro-benzyl)-isophthalamide]				138 to 140
O=C(NCc1cccc(Cl)c1)c1cccc(C(=O)NCc2cccc(Cl)c2)c1 [Example 18, N,N′-Bis-(3-chloro-benzyl)-isophthalamide]				128 to 130
O=C(NCc1ccc2c(c1)OCO2)c1cccc(C(=O)NCc2ccc3c(c2)OCO3)c1 [Example 19, N,N′-Bis-1,3-benzodioxol-5-ylmethyl-isophthalamide]	< 4.00			
O=C(NCc1ccc2c(c1)OCO2)c1cccc(C(=O)NCc2ccc3c(c2)OCO3)c1 [Example 28, N,N′-Bis-1,3-benzodioxol-5-ylmethyl-isophthalamide]	< 4.00			
COc1cccc(CNC(=O)c2cccc(C(=O)NCc3cccc(OC)c3)c2)c1 [Example 30, N,N′-Bis-(3-methoxy-benzyl)-isophthalamide]	< 4.00	< 4.00		
CCOc1ccc(C(=O)NCc2cccc(OC)c2)cc1C(=O)NCc1cccc(OC)c1 [Example 64, 4-Ethoxy-N′1,N″3-bis-(3-methoxy-benzyl)-isophthalamide]	< 4.00	< 4.00		
COc1ccc(C(=O)OCc2ccc3nsnc3c2)cc1C(=O)OCc1ccc2nsnc2c1 [Example 69, 4-Methoxy-isophthalic acid di-2,1,3-benzothiadiazol-5-ylmethyl ester]	4.52			
N,N′-Bis-(4-methoxy-benzyl)-isophthalamide [Example 39]	< 4.00	< 4.00	5.56	

Reference: patent US7214712B2, “Isophthalic acid derivatives as matrix metalloproteinase inhibitors” (Warner-Lambert Company, priority 2001, dated 2007)
